Test results as given in patent publication US10251865B2, “Method of activating regulatory T cells with alpha-2B adrenergic receptor agonists” (Allergan, Inc., priority 2010, dated 2019).

How the values were obtained:
[1] = tested on: SNL Rat Model of Allodynic Neuropathic Pain; test: Allodynia reversal (Von Frey) in the SNL Rat Model of Allodynic Neuropathic Pain; format: in vivo; conditions: for % Allodynia Reversal 24 hr post / % Allodynia Reversal 7 day post / % Allodynia Reversal 23 day post: SNL rats; for blockade of the (long-term) analgesic effect by the immunosuppressant FK506: spinal nerve ligation model, result in words
Procedure: The SNL (or Chung) Model in the rat is an accepted standard animal model of neuropathic pain and is thought to mimic the human causalgia condition with respect to symptoms (guarding behavior, mechanical allodynia) and alleviation by pharmacological agents. […] The SNL Model is performed by tightly ligating the L-5 and L-6 spinal nerves, which produces tactile allodynia or sensitivity to light touch as described (Kim and Chung, 1992). Male sprague-dawley rats (100-120 grams; Charles River, Wilmington, Mass.) were anesthetized through inhalation of an isoflurane/oxygen mix. The surgical site was shaved and prepared with betadine. An incision was made from the thoracic vertebra XIII toward down the sacrum. The muscle was separated from the spinal vertebra (left side) at the L4-S2 levels. The L6 vertebra was located and then the transverse process was carefully removed with a small rongeur to visually identify the L4-L6 spinal nerves. The L5 and L6 spinal nerves was isolated and tightly ligated with 6-0 silk thread. A complete homeostasis was confirmed and then the wound was sutured. The duration of the surgery was approximately 20 minutes. A small amount of antibiotic ointment was applied to the incised area and the animals were transferred to a plastic recovery cage under a regulated heat-temperature lamp. Animals were not given any topical or local anesthetics post-operatively because they will inhibit the development of the pain syndrome, which is the phenomenon to be studied.
The allodynia is quantitated in the animals having received the Chung surgery by stimulation with a series of 8 Von Frey hairs on the mid planter area of the surgical hind paw in the up-down manner as described in the literature (Dixon, 1980). Von Frey hairs are applied in an up-down manner depending on the response until the 50% threshold is established. The Von Frey hairs are applied to the plantar surface of the surgical paw with just enough force to bend them. A positive response is recorded if the paw is sharply withdrawn. Eight Von Frey hairs were used 3.61, 3.84, 4.08, 4.31, 4.56, 4.74, 4.93 and 5.18 yielding a gram force of 0.25-15 grams.
[formula] • Mean±SEM: • Mean=average of allodynia reversals • SEM=STDEV/SQ ROOT of n
Testing with compounds is done 2-3 weeks after surgery to establish stable allodynia. In all experimental animals, baseline measurements were taken prior to drug administration and then at 24 hours and 5-23 days post dosing with Alzet osmotic minipump. The investigator was blinded to the identity of the drug groups. The % allodynia reversal is calculated as: [(Postdrug threshold−Predrug threshold)/(15-Predrug threshold)]×100.
Compound B was formulated in 50% DMSO (dimethyl sulfoxide; Sigma, St. Louis, Mo.). This solution was dosed orally TID at a dose of 0.3 or 1 mg/kg. For dosing in the osmotic minipumps (Model 1007D, Alzet Corp., Palo Alto, Calif.) the compound was loaded onto the pumps set to deliver a final dose of either 1 or 3 mg/kg/day. The vehicle for these studies is 50% DMSO.
Compound C was formulated first in 100% DMSO (Sigma, St. Louis, Mo.), then diluted down in 30% DMSO for a 10 mg/ml solution; 15% DMSO for a 3 mg/ml solution and further dilutions were made in water. The compound was dosed orally TID at a dose of either 0.3 or 1 mg/kg for a total daily dose of 1 or 3 mg/kg/day, respectively.

[2] = tested on: PLP-induced model of relapsing remitting EAE; test: Proteolipid-induced relapsing-remitting EAE in mice: clinical score and pain; format: in vivo
Excerpt: The mouse model of experimental autoimmune encephalomyelitis (EAE) has been used extensively to understand the mechanisms underlying the immunopathogenesis of MS. […] Components of the immune system including T cells, macrophage, and antibodies are important contributors to myelin destruction in EAE mice. Further, inflammation also gives rise to multifocal regions demyelination culminating in clinical signs of neurologic dysfunction that include loss of tail tone, abnormal gait and partial-to-complete hind-limb paralysis. PLP-induced EAE model offers the ability to simultaneously investigate the pathogenic mechanisms of CNS inflammation and demyelination and MS-associated pain, a multi-targeted concept that we have optimized here at Allergan. Using sterile technique proteolipid protein myelin peptide (PLP) (139-159: […]) is mixed 1:1 with incomplete Freund's adjuvant (IFA) (Final concentration of 2 mg/ml PLP). 8-10 week old Female SJL mice (Taconic) are injected subcutaneously with 100 μl PLP/IFA (200 μg PLP/injection) on both the right and left hind-flank (day 0) using a 26G needle. Mice immunized using this protocol experience a relapsing-remitting clinical course with episodes of motor impairment interspersed with periods of remission/clinical improvement. Furthermore, these mice display a robust pain phenotype that is most pronounced during periods of clinical remission.
Using this protocol, the onset of PLP-induced EAE in SJL mice occurs at an incidence of (˜90-100%) and is generally apparent by ˜12 days post-immunization, reaching peak disease by 14-21 days. PLP-EAE mice show physical symptoms of neurologic impairment, progressing from partial loss of tail tonicity to partial-to-complete hind-limb paralysis. Up to 75% of the mice will experience a relapsing-remitting clinical course with periods of remission flanked by episodes of motor impairment (hind-limb weakness and paralysis). Histologically, mice display extensive inflammation within white matter tracts (areas containing myelinated axons) of the brain and spinal cord, progressive infiltration and accumulation of inflammatory cells, demyelination and axonal loss. Mice with severe EAE show extensive cellular infiltrates, widespread foci of demyelination. PLP-immunized mice typically display the most severe clinical disease during the first episode of neurologic impairment (days 14-21). […]
Mice were routinely visually scored for behavioral abnormalities on a scale from 0-5; 0-no abnormality, 1-partial loss of tail tonicity (partial limp tail), 2-loss of tail tonicity and hind-limb weakness 3-unsteady gait and partial hind-limb paralysis, 4-complete hind-limb paralysis and 5-moribund or dead. […] Allodynia was measured by the Von Frey hairs method as described earlier. […]

[3] = 1 mg/kg/day osmotic minipump for 7 days + 3 mg/kg FK506 BID SC for 5 days
[4] = 1 mg/kg/day osmotic minipump, treatment for 7 days
[5] = 1 mg/kg/day TID oral for 5 days + 3 mg/kg FK506 BID SC for 5 days, mean % MPE ± SEM
[6] = 1 mg/kg/day TID oral for 5 days, mean % MPE ± SEM

Compound | % Allodynia Reversal 24 hr post [1, 3] [%] | % Allodynia Reversal 7 day post [1, 3] [%] | % Allodynia Reversal 24 hr post [1, 4] [%] | % Allodynia Reversal 7 day post [1, 4] [%] | blockade of the (long-term) analgesic effect by the immunosuppressant FK506 [1] | pain ([2]; mice immunized with proteolipid protein, 3 mg/kg/day by osmotic minipump, FIG. 3) | symptoms of MS (clinical course of disease) ([2]; treatment during the development of clinical disease, FIG. 4) | clinical score during relapses on days 14 (p<0.01) and 24 ([2]; treatment from days 7-10) | % Allodynia Reversal 24 hr post [1, 5] [%] | % Allodynia Reversal 23 day post [1, 5] [%] | % Allodynia Reversal 24 hr post [1, 6] [%] | % Allodynia Reversal 23 day post [1, 6] [%] | clinical score compared to vehicle-treated mice from days 13-24 ([2]; TID oral dosing (3 mg/kg/day) from day 7-13, FIG. 6)
CCC1=CC(Cc2c[nH]cn2)CCC1 (centres unmarked) [Compound B] | 57.06 ± 14.52 | 16.43 ± 19.42 | 78.50 ± 7.85 | 73.35 ± 11.95 | blockable | reduced | significant effect on attenuating symptoms | reduced |  |  |  |  | 
Clc1cccc(CNC2=NCCN2)c1Cl [Compound C] |  |  |  |  | able to block |  |  |  | 49 ± 13.15 | 21.82 ± 4.26 | 66.06 ± 10.71 | 81.48 ± 6.00 | significantly reduced
